Measurements from PubChem BioAssay AID720715 (Broad Institute, 2013).
Records with an inconclusive call do not appear. Calls of active or inactive are those of the source. No rule for the calls is given here.

Test system: not listed separately
Test: viability loss in HEK293 kidney cells – cell-based, plate reader, dry powder, set 2, cytotoxicity control, dose response (AID 720715)
Details: HEK293 cytotoxicity, plate reader; at 12 µM (top of the series)

Q: With `O=C(c1nnsc1S(=O)c1ccc(Cl)cc1)N1CCOCC1` (stereo unspecified) as the molecule, how does the activity change, negative = cytotoxicity read?
A: Its activity change, negative = cytotoxicity is 0.296% (inactive).

Same assay, conditions: HEK293 cytotoxicity, plate reader; at 26 µM (top of the series)

Q: Which activity change, negative = cytotoxicity does the source give for `CCCOc1ccccc1C1CC(=O)Nc2cc3c(cc21)OCO3` (stereo unspecified) here?
A: Its activity change, negative = cytotoxicity is -19.2% (inactive).

Q: Which activity change, negative = cytotoxicity does the source give for `Nc1nonc1C(=O)NCCNCc1cc(Br)ccc1OCc1ccc(F)cc1` here?
A: The activity change, negative = cytotoxicity was -59.1% (inactive).

Q: With `Cc1ccc2cc(CN(CC3CCCO3)C(=O)NC3CCCCC3)c(=O)[nH]c2c1C` (stereo unspecified) as the molecule, how does the activity change, negative = cytotoxicity read?
A: The activity change, negative = cytotoxicity was 5.24% (inactive).

Q: For `CC(=O)N1CCN(C(=O)CCc2cc(C(C)(C)C)c(O)c(C(C)(C)C)c2)CC1`, which activity change, negative = cytotoxicity is on record?
A: Its activity change, negative = cytotoxicity is -13.7% (inactive).

Q: With `CCOC(=O)C1(Cc2ccc(Cl)cc2)CCN(C(C)Cc2ccc(O)c(OC)c2)CC1` (stereo unspecified) as the molecule, how does the activity change, negative = cytotoxicity read?
A: Its activity change, negative = cytotoxicity is -31.7% (inactive).

Q: With `COc1ccc(NS(=O)(=O)c2ccc(C(=O)N3CCCCCC3)cc2)cc1` as the molecule, how does the activity change, negative = cytotoxicity read?
A: Its activity change, negative = cytotoxicity is -33.4% (inactive).

Q: Which activity change, negative = cytotoxicity does the source give for `CCCc1nnc(NC(=O)c2nc(S(=O)(=O)Cc3ccc(C)cc3)ncc2Cl)s1` here?
A: Its activity change, negative = cytotoxicity is -2.77% (inactive).

Q: For `Fc1ccc(-n2nnnc2-c2cnc(-c3cccs3)nc2C(F)(F)F)cc1`, which activity change, negative = cytotoxicity is on record?
A: The activity change, negative = cytotoxicity was -31.8% (inactive).

Q: Which activity change, negative = cytotoxicity does the source give for `COc1ccc(NC(=O)c2nc(S(=O)(=O)Cc3cccc(C)c3)ncc2Cl)c(OC)c1` here?
A: The activity change, negative = cytotoxicity was -19.6% (inactive).

Q: Which activity change, negative = cytotoxicity does the source give for `Cc1cc2c(cc(C(=O)N3CCC(C(=O)NC4CCCC4)CC3)n2Cc2c(F)cccc2Cl)o1` here?
A: Its activity change, negative = cytotoxicity is -24.5% (inactive).

Q: Which activity change, negative = cytotoxicity does the source give for `COc1ccccc1N1CCN(c2ncc(C(=O)N3CCN(c4cccc(Cl)c4)CC3)c3ccccc23)CC1` here?
A: Its activity change, negative = cytotoxicity is -7.71% (inactive).

Q: For `O=c1c2ccccc2nc2n1C(CSCc1ccc(Cl)cc1Cl)CS2` (stereo unspecified), which activity change, negative = cytotoxicity is on record?
A: Its activity change, negative = cytotoxicity is -9.98% (inactive).

Q: With `Cc1cc(N2CCCC2=O)cc(C)c1S(=O)(=O)NCCOc1ccc(C(C)(C)C)cc1` as the molecule, how does the activity change, negative = cytotoxicity read?
A: Its activity change, negative = cytotoxicity is 57.1% (inactive).

Q: With `CC(C)[C@H](NC(=O)OC(C)(C)C)c1nnc(S(=O)(=O)Cc2c(F)cccc2Cl)o1` as the molecule, how does the activity change, negative = cytotoxicity read?
A: The activity change, negative = cytotoxicity was -61.3% (inactive).

Q: With `CN(CC(=O)Nc1cccc(S(=O)(=O)N2CCOCC2)c1)CC(=O)Nc1ccc(Cl)c(C(F)(F)F)c1` as the molecule, how does the activity change, negative = cytotoxicity read?
A: Its activity change, negative = cytotoxicity is -50% (inactive).

Q: Which activity change, negative = cytotoxicity does the source give for `CC(=O)Nc1cccc(NC(=O)CSc2ncc(-c3ccc(Cl)cc3)n2Cc2ccco2)c1` here?
A: Its activity change, negative = cytotoxicity is -4.47% (inactive).

Q: For `COc1cc2ncnc(N[C@H](C)c3ccccc3)c2cc1OC`, which activity change, negative = cytotoxicity is on record?
A: The activity change, negative = cytotoxicity was 70.1% (inactive).

Test system: HEK293 cytotoxicity, plate reader
Test: as above
Details: not given

Q: Which AC50 does the source give for `COc1cc(CN2CCc3ccccc3C2)ccc1O` here?
A: The AC50 was 14.7 µM.

Q: For `COc1ccc(Nc2nc(N3CCCCC3)c3ccccc3n2)cc1`, which AC50 is on record?
A: Its AC50 is 23.8 µM.

Q: Which AC50 does the source give for `CCOC(=O)C1CCN(C(=O)c2ccc(OCC(=O)Nc3cccc(C(F)(F)F)c3)c(OC)c2)CC1` here?
A: The AC50 was 5.01 µM.

Q: For `CC(C)(C)NC(=O)CSc1nc2ccc(NC(=O)CSc3nnnn3Cc3ccccc3)cc2s1`, which AC50 is on record?
A: The AC50 was 15.9 µM.

Q: Which AC50 does the source give for `CCOC(=O)c1ccc(NC(=O)Cn2ncc(Cl)c(Cl)c2=O)cc1` here?
A: Its AC50 is 15.1 µM.

Q: Which AC50 does the source give for `CN(C)c1nc(-c2ccccn2)nnc1-c1ccccc1` here?
A: Its AC50 is 5.55 µM.

Q: Which AC50 does the source give for `CN(C(=O)COc1ccccc1C(=O)NCCOc1ccccc1)c1ccccc1` here?
A: Its AC50 is 18.1 µM.

Q: Which AC50 does the source give for `O=C1CSc2ccc(C(=O)Nc3cccc(S(=O)(=O)Nc4ccc(Br)cc4)c3)cc2N1` here?
A: Its AC50 is 19.3 µM.
